Data set [1] concerns PKB Ser473 phosphorylation in Rat1-myr-HA-p110 beta cells. The experiment in a line: Reverse protein array assay, PKB Ser473 phosphorylation in Rat1-myr-p110 beta cells. The data set is classed as cell-based. The settings on record: 0.5 h, pAkt Ser473, 30 minutes incubation, read-out: p-PKB IC50. An outline of the steps: (§1)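 Lysates were arrayed at four dilutions, and phospho-PKB Ser473 was quantified by relative fluorescence signal. They came from Rat1-myr-HA-p110 alpha, beta or delta cells exposed for 30 min at 37 °C to an 8-point compound series with 0.2% DMSO constant.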

In data set [2] the test system is PKB Ser473 phosphorylation in Rat1-myr-HA-p110 alpha cells. The data set is described as follows: Reverse protein array assay, PKB Ser473 phosphorylation in Rat1-myr-p110 alpha cells. It is filed as cell-based. The conditions noted are these: 0.5 h, pAkt Ser473, 30 minutes compound incubation, read-out: p-PKB IC50. An outline of the steps: as §1
Data set [3] in a line: Solubility at pH 6.8. It is filed as physicochemical. The source says:
The physicochemical properties of relevance for the absorption of the compound, such as the solubility and the membrane permeability, especially at a pH close to neutral pH can be measured using the procedure as described by L. ZHOU et al. in JOURNAL OF PHARMACEUTICAL SCIENCES, VOL. 96, NO. 11, p. 3052-3071 (2007) for the solubility at pH 6.8 and the procedure as described by F. Wohnsland and B. Faller in Journal of Medicinal Chemistry Vol 44, p. 923-930 (2001) for the Parallel Artificial Membrane Permeability Assay (PAMPA) at pH 6.8.

The test system of data set [4] is PKB Ser473 phosphorylation in Rat1-myr-HA-p110 delta cells. The experiment in a line: Reverse protein array assay, PKB Ser473 phosphorylation in Rat1-myr-p110 delta cells. It is filed as cell-based. The settings on record: read-out: p-PKB IC50. An outline of the steps:
as §1

For data set [5], the system named is S6 Ribosomal Protein phosphorylation Ser235/236 in TSC1 null mouse embryo fibroblast (MEF) cells. The data set is described as follows: Reverse protein array assay, S6 Ribosomal Protein phosphorylation Ser235/236 in TSC1 null MEF cells. It is filed as cell-based. The settings on record: 1 h, pS6 ribosomal protein Ser235/236, 60 minutes incubation, read-out: p-S6 IC50. An outline of the steps:
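TSC1−/− MEFs, seeded and held ≥20 h at 37 °C/5% CO2, were exposed to 8-step serial compound dilutions (0.02% DMSO final; DMSO vehicle control) for 60 min at 37 °C. Cells were then lysed on ice for 10 min and lysates spotted onto reverse protein array chips.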

Data set [6] concerns the target T1, mTOR (Homo sapiens, UniProt P42345).
T1 construct: purchased Invitrogen Corporation (Carlsbad/CA, USA) PV4753
The data set is described as follows: Biochemical assay for m-TOR by TR-FRET. The settings on record: 8 μM ATP, 400 nM GFP-4EBP1, 0.5 nM mTOR. An outline of the steps:
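mTOR (0.5 nM) was incubated at rt with ATP (8 μM final) and GFP-4EBP1 (400 nM final) in 50 mM HEPES pH 7.5, 10 mM MnCl2, 50 mM NaCl, 1 mM EGTA, 1 mM DTT. EDTA stop with Tb3+-anti-p4EBP1 [pThr46] antibody (0.5 nM); TR-FRET read 15 min later.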

Data set [7] concerns the target T2, PI3K alpha (Homo sapiens, UniProt P42336).
T2 construct: p85(iSH2) fusion partner (see partner chain) (N); His tag (C); made in house; host or cells: baculovirus; Tn5 (Trichoplusia ni) or TiniPro insect cells
The data set is described as follows: PI3K alpha kinase assay (Kinase-Glo luminescence). The data set is classed as biochemical. The gist of the method:
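Read-out: Kinase-Glo luminescence of ATP left after 60 min at room temperature. Conditions: 10 nM PI3Kα (EMV B1075), 1 μM ATP, 10 μg/mL PI substrate, Tris pH 7.5 buffer with MgCl2, NaCl, CHAPS and DTT. IC50s fitted with a four-parameter logistic model.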
A general note: Kinase-Glo reads ATP consumption through a luciferase reaction.

Data set [8] deals with T3, PI3K beta (Homo sapiens, UniProt P42338).
T3 construct: for the full-length p110-b subunit are generated and fused by overlapping PCR; p85(iSH2) fusion partner (see partner chain) (N); His tag (C); made in house; host or cells: baculovirus; Tn5 (Trichoplusia ni) or TiniPro insect cells
T3 sequence (P42338 with tags, fused parts or gaps limits assumed): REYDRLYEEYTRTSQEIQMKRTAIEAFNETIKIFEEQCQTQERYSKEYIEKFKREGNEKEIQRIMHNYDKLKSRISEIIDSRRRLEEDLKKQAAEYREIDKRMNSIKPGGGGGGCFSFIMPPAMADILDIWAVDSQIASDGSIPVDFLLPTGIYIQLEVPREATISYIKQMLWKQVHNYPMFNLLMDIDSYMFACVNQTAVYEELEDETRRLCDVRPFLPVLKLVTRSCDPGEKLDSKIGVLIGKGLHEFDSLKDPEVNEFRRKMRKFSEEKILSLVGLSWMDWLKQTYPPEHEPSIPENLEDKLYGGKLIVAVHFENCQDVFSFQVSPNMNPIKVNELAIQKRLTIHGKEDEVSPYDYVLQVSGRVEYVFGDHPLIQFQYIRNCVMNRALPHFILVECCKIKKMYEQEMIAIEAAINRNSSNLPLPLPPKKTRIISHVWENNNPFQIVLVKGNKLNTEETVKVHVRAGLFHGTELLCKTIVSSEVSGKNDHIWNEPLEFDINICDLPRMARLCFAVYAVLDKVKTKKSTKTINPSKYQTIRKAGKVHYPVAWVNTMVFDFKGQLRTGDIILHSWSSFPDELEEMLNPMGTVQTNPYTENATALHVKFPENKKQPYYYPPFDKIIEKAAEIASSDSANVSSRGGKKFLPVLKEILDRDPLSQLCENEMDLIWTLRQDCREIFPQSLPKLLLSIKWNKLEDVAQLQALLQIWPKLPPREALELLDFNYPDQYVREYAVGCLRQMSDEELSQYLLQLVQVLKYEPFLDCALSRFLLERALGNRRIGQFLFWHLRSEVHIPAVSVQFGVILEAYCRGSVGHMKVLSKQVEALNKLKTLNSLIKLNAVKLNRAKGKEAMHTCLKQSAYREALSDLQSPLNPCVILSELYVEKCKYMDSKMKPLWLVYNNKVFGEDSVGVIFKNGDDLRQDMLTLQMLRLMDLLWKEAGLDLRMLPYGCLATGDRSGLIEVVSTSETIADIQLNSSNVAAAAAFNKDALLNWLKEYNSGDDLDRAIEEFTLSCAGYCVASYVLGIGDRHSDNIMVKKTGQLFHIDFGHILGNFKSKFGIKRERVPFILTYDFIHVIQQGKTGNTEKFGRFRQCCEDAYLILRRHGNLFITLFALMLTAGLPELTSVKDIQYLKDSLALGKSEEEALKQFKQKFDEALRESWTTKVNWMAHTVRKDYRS
The experiment in a line: PI3K beta kinase assay (Kinase-Glo luminescence). It is filed as biochemical. As for the experimental part:
In a more preferred assay, the kinase reaction is performed in a final volume of 10 μL per well of a low volume non binding CORNING, 384 well black plate (Cat. No. #3676). The final concentrations of ATP and phosphatidyl inositol (PI) in the assay are 1 μM and 10 μg/mL respectively. The reaction is started by the addition of ATP.
The components of the assay are added per well as follows:
[…] in 90% DMSO per well, in columns 1-20, 8 concentrations (1/3 and 1/3.33 serial dilution step) in single. • Low control: […] of 90% DMSO in half the wells of columns 23-24 (0.45% in final). • High control: […] of reference compound (e.g. compound of Example 7 in WO 2006/122806) in the other half of columns 23-24 (2.5 μM in final). • Standard: […] of reference compound as just mentioned diluted as the test compounds in columns 21-22 • 20 mL ‘buffer’ are prepared per assay: • 200 μL of 1M TRIS HCl pH7.5 (10 mM in final) • 60 μL of 1M MgCl2 (3 mM in final) • 500 μL of 2M NaCl (50 mM in final) • 100 μL of 10% CHAPS (0.05% in final) • 200 μL of 100 mM DTT (1 mM in final) • 18.94 mL of nanopure water • 10 mL ‘PI’ are prepared per assay: • 200 μL of 1 mg/ml L-alpha-Phosphatidylinositol (Liver Bovine, Avanti Polar Lipids Cat. No. 840042C MW=909.12) prepared in 3% OctylGlucoside (10 μg/ml in final) • 9.8 mL of ‘buffer’ • 10 mL ‘ATP’ are prepared per assay: • 6.7 μL of 3 mM stock of ATP giving a final concentration of 1 μM per well • 10 mL of ‘buffer’ • 2.5 mL of each PI3K construct are prepared per assay in ‘PI’ with the following final concentration: • 10 nM PI3K alfa EMV B1075 • 25 nM beta EMV BV949 • 10 nM delta EMV BV1060 • 150 nM gamma EMV BV950 • 5 μL of ‘PI/PI3K’ are added per well. • 5 μl ‘ATP’ are added per well to start the reaction. • The plates are then incubated at room temperature for 60 minutes (alfa, beta, delta) or 120 minutes (gamma). • The reaction is terminated by the addition of 10 μL Kinase-Glo (Promega Cat. No. #6714). • The assay plates are read after 10 minutes in Synergy 2 reader (BioTek, Vermont USA) with an integration time of 100 milliseconds and sensitivity set to 191. • Output: The High control is around 60'000 counts and the Low control is 30'000 or lower • This luminescence assay gives a useful Z′ ratio between 0.4 and 0.7
PI3Kβ BV-949 p85(iSH2)-Gly Linker-p110b(Full-Length)-C-Term his Tag
IC50 is determined by a four parameter curve fitting routine that comes along with “excel fit”. […] Alternatively, IC50 values are calculated using idbsXLfit model 204, which is a 4 parameter logistic model.

The target in data set [9] is T4, PI3K delta (Homo sapiens, UniProt O00329).
T4 construct: for the full-length p110-d subunit are generated and fused by overlapping PCR; p85(iSH2) fusion partner (see partner chain) (N); His tag (C); made in house; host or cells: baculovirus; Tn5 (Trichoplusia ni) or TiniPro insect cells
T4 sequence (O00329 with tags, fused parts or gaps limits assumed): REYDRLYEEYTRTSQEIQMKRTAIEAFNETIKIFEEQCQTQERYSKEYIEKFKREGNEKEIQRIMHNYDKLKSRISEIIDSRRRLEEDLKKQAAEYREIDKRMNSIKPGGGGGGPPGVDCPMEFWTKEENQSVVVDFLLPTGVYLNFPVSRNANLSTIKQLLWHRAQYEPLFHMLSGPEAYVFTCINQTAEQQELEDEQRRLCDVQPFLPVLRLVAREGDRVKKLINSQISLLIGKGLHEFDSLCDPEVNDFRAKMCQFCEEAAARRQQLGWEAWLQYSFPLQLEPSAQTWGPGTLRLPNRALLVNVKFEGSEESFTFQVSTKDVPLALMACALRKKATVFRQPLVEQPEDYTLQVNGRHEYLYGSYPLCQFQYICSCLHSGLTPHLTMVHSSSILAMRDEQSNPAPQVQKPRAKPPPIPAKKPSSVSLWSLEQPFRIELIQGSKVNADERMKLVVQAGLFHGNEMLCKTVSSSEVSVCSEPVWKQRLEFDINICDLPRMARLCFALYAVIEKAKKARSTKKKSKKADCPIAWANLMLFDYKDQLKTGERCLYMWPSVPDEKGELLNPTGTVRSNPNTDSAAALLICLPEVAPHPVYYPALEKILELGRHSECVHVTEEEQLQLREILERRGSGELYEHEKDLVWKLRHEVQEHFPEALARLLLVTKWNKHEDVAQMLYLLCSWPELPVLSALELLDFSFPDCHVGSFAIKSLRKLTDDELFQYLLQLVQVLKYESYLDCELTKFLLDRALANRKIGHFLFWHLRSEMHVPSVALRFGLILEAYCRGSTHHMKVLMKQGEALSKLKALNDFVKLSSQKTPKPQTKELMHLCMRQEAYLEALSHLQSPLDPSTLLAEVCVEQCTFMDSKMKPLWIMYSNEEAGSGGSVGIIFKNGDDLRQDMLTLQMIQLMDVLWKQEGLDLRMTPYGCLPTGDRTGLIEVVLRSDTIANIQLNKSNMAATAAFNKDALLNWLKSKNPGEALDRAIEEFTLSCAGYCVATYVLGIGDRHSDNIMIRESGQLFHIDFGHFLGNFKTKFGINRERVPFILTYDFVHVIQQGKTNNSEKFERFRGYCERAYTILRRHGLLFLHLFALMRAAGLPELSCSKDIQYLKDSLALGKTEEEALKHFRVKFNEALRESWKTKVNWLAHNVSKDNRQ
The experiment in a line: PI3K delta kinase assay (Kinase-Glo luminescence). It is filed as biochemical. An outline of the steps:
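Kinase-Glo luminescence read-out of ATP remaining after 60 min at RT. Enzyme: 10 nM BV1060 (p85 iSH2–p110δ fusion, His-tagged); substrate 10 μg/mL PI, ATP 1 μM final; Tris pH 7.5 buffer with MgCl2, NaCl, CHAPS, DTT. IC50 from 4-parameter logistic fit over 8 concentrations.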

[10] abbreviates: pH 6.8, aqueous buffer, thermodynamic from solid, read-out: solubility.

Molecules are shown by their SMILES. ≈ marks a conversion by molar mass, not a printed value. Read-outs that look alike come from different tables or passages of the source.

T2 sequence (P42336 with tags, fused parts or gaps limits assumed): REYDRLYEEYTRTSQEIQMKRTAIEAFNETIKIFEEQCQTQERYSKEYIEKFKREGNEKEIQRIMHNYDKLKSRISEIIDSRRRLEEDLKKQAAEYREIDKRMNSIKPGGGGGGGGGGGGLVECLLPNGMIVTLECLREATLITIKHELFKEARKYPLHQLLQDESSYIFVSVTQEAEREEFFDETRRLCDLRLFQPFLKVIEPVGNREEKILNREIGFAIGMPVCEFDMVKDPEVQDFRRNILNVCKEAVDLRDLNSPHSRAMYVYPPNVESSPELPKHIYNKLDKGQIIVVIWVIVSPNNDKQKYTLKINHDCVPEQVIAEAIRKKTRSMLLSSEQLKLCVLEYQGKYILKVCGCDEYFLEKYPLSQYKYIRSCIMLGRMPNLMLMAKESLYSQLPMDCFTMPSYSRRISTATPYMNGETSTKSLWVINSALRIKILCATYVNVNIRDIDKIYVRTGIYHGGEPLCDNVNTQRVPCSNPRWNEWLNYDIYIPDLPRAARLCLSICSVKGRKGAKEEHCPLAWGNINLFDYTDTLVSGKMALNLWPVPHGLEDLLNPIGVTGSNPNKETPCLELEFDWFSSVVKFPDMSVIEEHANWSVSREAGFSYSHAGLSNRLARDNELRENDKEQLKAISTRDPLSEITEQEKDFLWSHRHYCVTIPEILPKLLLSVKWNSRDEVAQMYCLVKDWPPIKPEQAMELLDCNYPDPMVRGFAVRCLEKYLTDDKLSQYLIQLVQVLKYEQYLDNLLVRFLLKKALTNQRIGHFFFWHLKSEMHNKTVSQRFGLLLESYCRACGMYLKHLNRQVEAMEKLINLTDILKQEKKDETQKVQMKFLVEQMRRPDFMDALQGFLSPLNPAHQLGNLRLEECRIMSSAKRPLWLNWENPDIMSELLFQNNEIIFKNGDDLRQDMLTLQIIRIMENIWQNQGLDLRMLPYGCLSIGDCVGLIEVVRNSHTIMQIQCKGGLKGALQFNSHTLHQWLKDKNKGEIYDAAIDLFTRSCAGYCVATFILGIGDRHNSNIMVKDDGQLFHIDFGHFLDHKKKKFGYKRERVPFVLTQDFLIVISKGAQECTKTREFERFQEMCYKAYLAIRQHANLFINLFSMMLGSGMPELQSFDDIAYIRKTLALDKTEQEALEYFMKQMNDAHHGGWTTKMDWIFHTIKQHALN
T1 sequence (P42345 1360-2549 limits assumed): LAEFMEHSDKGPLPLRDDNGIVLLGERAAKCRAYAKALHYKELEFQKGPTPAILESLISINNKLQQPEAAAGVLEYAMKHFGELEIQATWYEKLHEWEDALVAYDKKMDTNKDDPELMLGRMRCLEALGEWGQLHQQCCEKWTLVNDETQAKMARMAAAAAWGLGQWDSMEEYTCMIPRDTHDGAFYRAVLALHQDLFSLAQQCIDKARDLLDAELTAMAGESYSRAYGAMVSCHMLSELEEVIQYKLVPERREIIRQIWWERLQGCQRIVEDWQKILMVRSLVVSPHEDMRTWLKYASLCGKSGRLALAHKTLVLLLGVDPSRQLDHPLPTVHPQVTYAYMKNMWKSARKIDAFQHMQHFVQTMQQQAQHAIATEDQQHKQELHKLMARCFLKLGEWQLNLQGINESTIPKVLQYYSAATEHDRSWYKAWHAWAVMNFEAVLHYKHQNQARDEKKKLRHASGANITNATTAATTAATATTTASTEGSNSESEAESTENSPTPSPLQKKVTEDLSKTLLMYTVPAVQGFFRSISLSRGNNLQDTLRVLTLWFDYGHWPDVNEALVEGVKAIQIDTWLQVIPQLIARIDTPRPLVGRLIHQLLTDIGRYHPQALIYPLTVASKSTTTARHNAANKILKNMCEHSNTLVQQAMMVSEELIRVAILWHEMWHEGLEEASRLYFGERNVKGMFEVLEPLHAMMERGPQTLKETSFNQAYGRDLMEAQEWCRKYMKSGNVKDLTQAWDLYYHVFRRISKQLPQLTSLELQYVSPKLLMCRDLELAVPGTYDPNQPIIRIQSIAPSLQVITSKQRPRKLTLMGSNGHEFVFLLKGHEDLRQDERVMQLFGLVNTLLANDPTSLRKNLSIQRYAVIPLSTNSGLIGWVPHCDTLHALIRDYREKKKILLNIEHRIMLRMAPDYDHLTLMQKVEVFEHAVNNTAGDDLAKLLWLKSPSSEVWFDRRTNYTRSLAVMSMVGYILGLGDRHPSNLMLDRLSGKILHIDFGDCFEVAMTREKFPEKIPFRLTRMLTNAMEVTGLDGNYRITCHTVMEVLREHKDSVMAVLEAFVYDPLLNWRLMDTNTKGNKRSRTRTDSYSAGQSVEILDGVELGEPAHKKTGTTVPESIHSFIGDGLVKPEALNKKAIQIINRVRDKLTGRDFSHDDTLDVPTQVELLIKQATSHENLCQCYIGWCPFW

For `Cc1nn(C)cc1-n1c(=O)n(C)c2cnc3ccc(-c4cnc(N5CCCC5)nc4)cc3c21` [Example 140.2, 1-(1,3-Dimethyl-1H-pyrazol-4-yl)-3-methyl-8-(2-pyrrolidin-1-yl-pyrimidin-5-yl)-1,3-dihydro-imidazo[4,5-c]quinolin-2-one], the IC50 in data set [1] came to 36 nM; in data set [2] it was 29 nM; in data set [4], 62 nM; in data set [5], 6 nM. In addition, in data set [3] (pH 6.8), the solubility amounted to 2 µg/mL (≈ 4.54 µM).

With `COCc1cc(-c2ccc3ncc4c(c3c2)n(-c2cn(C)nc2Cl)c(=O)n4C)cnc1N` [Example 168.3, 8-(6-Amino-5-methoxymethyl-pyridin-3-yl)-1-(3-chloro-1-methyl-1H pyrazol-4-yl)-3-methyl-1,3-dihydro-imidazo[4,5-c]quinolin-2-one], the IC50 in data set [1] is 6 nM; in [2], 10 nM; in [6] it was less than 3 nM; in [4], 7 nM; in data set [5], less than 0.5 nM. In data set [3] (setting [10]), the solubility was determined as 14 µg/mL (≈ 31.1 µM).

In the case of `Cn1cc(-n2c(=O)n(C)c3cnc4ccc(-c5cncc(C(C)(C)O)c5)cc4c32)c(Cl)n1` [Example 215.3, 1-(3-Chloro-1-methyl-1H-pyrazol-4-yl)-8-[5-(1-hydroxy-1-methyl-ethyl)-pyridin-3-yl]-3-methyl-1,3-dihydroimidazo[4,5-c]quinolin-2-one], the IC50 in data set [1] amounted to 16 nM; in data set [2] it was 13 nM; in data set [6], 7 nM; in data set [4], 22 nM; in [5], 1 nM. Besides, the solubility in data set [3] (setting [10]) was found to be 21 µg/mL (≈ 46.8 µM).

For the compound `CCNC(=O)c1cc(-c2ccc3ncc4c(c3c2)n(-c2c(C)nn(C)c2C)c(=O)n4C)cnc1NC` [Example 242.2, N-Ethyl-2-methylamino-5-[3-methyl-2-oxo-1-(1,3,5-trimethyl-1H-pyrazol-4-yl)-2,3-dihydro-1H-imidazo[4,5-c]quinolin-8-yl]-nicotinamide], the IC50 is 995 nM in [1], 371 nM in [2], 895 nM in data set [4] and 88 nM in data set [5]. Moreover, the solubility in data set [3] (setting [10]) was greater than 485 µg/mL.

For the compound `CCn1cc(-n2c(=O)n(C)c3cnc4ccc(-c5cnc(COC)c(NC)c5)cc4c32)c(C)n1` [Example 160.2, 1-(1-Ethyl-3-Methyl-1H-pyrazol-4-yl)-8-(6-methoxymethyl-5-methylamino-pyridin-3-yl)-3-methyl-1,3-dihydro-imidazol[4,5-c]quinolin-2-one], the IC50 in data set [7] was 39 nM; in data set [8], 130 nM; in data set [6] it was 25 nM; in data set [9], 16 nM. Also, in data set [3] (setting [10]), the solubility worked out at 237 µg/mL (≈ 518 µM).

As to `CCOc1ccc(-c2ccc3ncc4[nH]c(=O)n(-c5cn(CC(=O)N6CCN(C)CC6)nc5C)c4c3c2)cn1` [Example 133, 8-(6-Ethoxy-pyridin-3-yl)-1-{3-methyl-1-[2-(4-methyl-piperazin-1-yl)-2-oxo-ethyl]-1H-pyrazol-4-yl}-1,3-dihydro-imidazo[4,5-c]quinolin-2-one], the IC50 in data set [7] is 938 nM; in data set [6] it was 13 nM; in [5], 508 nM; in data set [9], 932 nM. For the same compound, the solubility in data set [3] (setting [10]) was found to be 72 µg/mL (≈ 137 µM).

`CCc1ncc(-c2ccc3ncc4c(c3c2)n(-c2cn(C)nc2C)c(=O)n4C)cc1OC(C)C` [Example 186, 1-(1,3-Dimethyl-1H-pyrazol-4-yl)-8-(6-ethyl-5-isopropoxy-pyridin-3-yl)-3-methyl-1,3-dihydro-imidazo[4,5-c]quinolin-2-one]: the IC50 in data set [1] was 34 nM; in data set [2] it was less than 5 nM; in data set [6] it was 56 nM; in data set [4], 27 nM; in data set [5], 1.02 nM. In addition, in [3] (setting [10]), the solubility came to 8 µg/mL (≈ 17.5 µM).

`COCCn1nc(C)c(-n2c(=O)n(C)c3cnc4ccc(-c5ccc(-n6cccn6)cc5)cc4c32)c1C` [Example 51.5]: the IC50 was found to be 110 nM in data set [7]; 17 nM in data set [2]; 516 nM in data set [4]; 25 nM in data set [5]; 362 nM in [9]. In addition, in [3] (setting [10]), the solubility is 14 µg/mL (≈ 28.4 µM).

For `Cc1nn(C)cc1-n1c(=O)n(C)c2cnc3ccc(-c4cncc(CN)c4)cc3c21` [Example 230, 8-(5-Aminomethyl-pyridin-3-yl)-1-(1,3-dimethyl-1H-pyrazol-4-yl)-3-methyl-1,3-dihydro-imidazo[4,5-c]quinolin-2-one], the IC50 turned out to be 100 nM in [7], 344 nM in data set [8], 465 nM in data set [6] and 437 nM in data set [9]. For the same compound, the solubility in data set [3] (setting [10]) is greater than 399 µg/mL.

For `Cc1nn(C)cc1-n1c(=O)n(C)c2cnc3ccc(-c4cncc(CNS(C)(=O)=O)c4)cc3c21` [Example 232], the IC50 in [7] came out at 44 nM; in data set [8] it was 101 nM; in data set [6] it was 56 nM; in data set [9], 60 nM. Further, the solubility in data set [3] (setting [10]) came out at 83 µg/mL (≈ 174 µM).

What is called IC50 is the concentration needed to halve the response being measured. For orientation: solubility means the concentration that dissolves in the medium under given conditions.
